A melting point compilation (Tetko et al.; mined from patent text by program, amines drawn as free bases though some values may be those of a salt)

Row | melting point [°C] | SMILES
1 | 72 to 74 | O=C(O)CN(CC(=O)O)c1cc(OCCCCCCCCCCCCOc2ccccc2)cc(OCCCCCCCCCCCCOc2ccccc2)c1
2 | 218 to 219 | COc1ccccc1NC(=S)C1CCc2nc[nH]c2C1 (stereo not given)
3 | 236 to 238 | Nc1ncc(-c2ccc(F)c(Cl)c2)nc1C(=O)Nc1cccnc1
4 | 89 to 92 | CCCCCCCCc1cccc(CCC(N)(CO)CO)c1
5 | 215 | O=C(Nc1n[nH]c2cc(Cl)ccc12)c1cccs1
6 | 246 | Cc1ccc(C2=NN=CNC2C)cc1 (stereo not given)
7 | 82 | CC(O)Cn1c(COC(N)=O)nc(C(C)C)c1Sc1cc(Cl)cc(Cl)c1 (stereo not given)
8 | 206 to 207 | CNc1ncc(S(=O)(=O)NC(=O)NC(C)C)c(Nc2cccc(C)c2)n1
9 | 93 to 95 | Cc1nc(NCC(C)C)nc(N2CCc3ccccc3C2C)c1C (stereo not given)
10 | 218 | N#CC(C(=O)c1ccc(Cl)cc1)=C1CCCN1C(=O)c1ccc(Cl)cc1
11 | 122 | CCc1nnc(-c2ccc(OC)cc2)n1-c1ccc(OC)cc1
12 | 90 to 91 | C[Si](C)(C)c1cccc2c1Sc1c(cccc1[Si](C)(C)C)S2
13 | > 250 | COc1cc2nc(N3CCN(c4nc5c([nH]4)CCCCC5)CC3)nc(N)c2cc1OC
14 | 182 to 183 | CC(=O)c1ccc(S(=O)(=O)Nc2cccnc2)cc1
15 | 160 to 161 | Cc1nc2c(c(N3CCN(CCO)CC3)n1)OC(C)C(=O)N2 (stereo not given)
16 | 203 to 204 | COC(=O)C1=Cc2cc(-c3ccc(C)cc3)ccc2S(=O)(=O)CC1
17 | 26.7 to 33.1 | CCCCNC(=O)CCc1ccccc1
18 | 88 | C=CCOC(=O)NC(C)(C)c1ccc(-c2nc(Nc3ccc(CCn4ccnc4)cc3)ncc2Cl)cc1F
19 | 126 to 130 | O=C(O)CCSCc1nccc2ccccc12
20 | 97 to 100 | COc1cc(C=CC(=O)CC(=O)C(F)(F)F)ccc1O
21 | 307 to 310 | Cc1cc(-c2c(F)c(F)c3c(=O)c(C(=O)O)cn4c3c2OC[C@@H]4C)cc(C)n1
22 | 109 to 111 | COc1c(O)cc(C)c(OC(=O)c2ccccc2)c1OC
23 | 127 to 128 | CCCc1c[nH]nc1OCCCc1cn(-c2ccc(C(F)(F)F)cn2)nc1CCC
24 | 93 to 95 | CCCC(NS(=O)(=O)c1ccc(Cl)cc1)C(=O)Nc1ccc(CC(=O)OCC)cc1 (racemic)
25 | 119 to 124 | COCCOc1cnn(-c2nc3ccccc3c(=O)[nH]2)c1

Row | melting point [°C] | SMILES
26 | 129 to 131 | OCC1(Nc2nc(-c3ccc(Br)cc3)cs2)CC1
27 | 245 to 248 | O=C1C(=O)c2ccccc2C2=C1SCC1(CCN(S(=O)(=O)c3cccs3)CC1)O2
28 | 110 to 112 | O=C(O)c1ccc(OC(F)(F)F)c(Cl)c1
29 | 160 to 161 | COCn1nc(N2C(=O)c3ccccc3C2=O)c2cc(S(=O)(=O)C(C)C)cc(OCCc3ccccn3)c21
30 | 212 | CS(=O)(=O)c1ccc(-c2nn(Cc3ccc(Cl)cc3Cl)c(=O)cc2-c2ccc(F)cc2)cc1
31 | 115 | CC(=O)c1c(Cl)cccc1N1CCN(CCCCOc2ccc3c(n2)NC(=O)CC3)CC1
32 | 185 | Cc1cc(COc2ccc(S(=O)(=O)NC[C@@H](C(=O)NO)N3CCN(S(C)(=O)=O)CC3)cc2)c2ccccc2n1
33 | 237 to 239 | CC(C)n1nc(-c2c(NC3CC3)nc(N)nc2-c2ccccc2)ccc1=O
34 | 109 to 114 | COc1cc(OCc2cccnc2)ccc1/C=C/c1cc(/C=C/c2cccc3[nH]ccc23)n[nH]1
35 | 114 to 116 | CS(=O)(=O)c1ccc(Oc2ccc(OCC#N)cc2)cc1
36 | 143 | COc1cc2ncn(CCCCl)c(=O)c2cc1OC
37 | 161 to 163 | O=C(O)Cc1coc2cc(OCc3ccc(OCc4ccc(C(F)(F)F)cc4)cc3)ccc12
38 | 39 to 40 | Fc1ccc(C=Nc2ccccc2)cc1
39 | 190 to 191 | Cc1nnc(-c2ccc3occ(-c4ccc(C(F)(F)F)cc4)c3c2)o1
40 | 59.2 to 60.9 | CC(CCC(=O)N(C)C#N)C(=O)N(C)C#N (stereo not given)
41 | 99 | CCCCc1ccc(OC)c(-c2csc(NC(=O)c3ccc(C(=O)N4CCC(N5CCC(OC(C)=O)C5)CC4)cc3)n2)c1 (stereo not given)
42 | 278 to 280 | Fc1ccc(CC2CCN(CCOc3ccc4c(c3)=NC(=S)N=4)CC2)cc1
43 | 227 to 229 | COC(=O)[C@@H]1Cc2cc(Cl)c(Cl)cc2[C@@H](NC(N)=O)C1 (relative stereo)
44 | 174 | Cc1ccc(S(=O)(=O)Oc2ccc(S(=O)(=O)C3=Cc4ccccc4C3)cc2)cc1
45 | 119 to 121 | CC(C)(C)OC(=O)COc1ccc(C(=O)O)cc1
46 | 184 to 186 | CCC(=O)OC1(C(=O)CCl)C(C)CC2C3CCC4CC(=O)CCC4(C)C3(F)C(=O)CC21C (stereo not given)
47 | 122 to 124 | Cc1ccc2nc(NC(=N)N)[nH]c2c1C
48 | 255 to 257 | O=C(O)c1ccc(CCNc2c(C(=O)O)cc(Cl)cc2[N+](=O)[O-])cc1
49 | 110 to 119 | COc1cc2c(cc1Nc1ncc(Cl)c(N[C@H]3[C@@H](C(N)=O)[C@@H]4C=C[C@H]3C4)n1)CCN(Cc1ncco1)CC2
50 | 151 | CN(C)c1ncc(-c2ccc(Cl)cc2Cl)c(N)n1

Row | melting point [°C] | SMILES
51 | 95 to 97 | CCOC(=O)c1c(C(F)(F)F)nc(C(F)(F)F)c(C)c1OCC(=O)c1ccccc1
52 | 183 | N#CC(CNC(=O)Nc1cncnc1)C(=O)O (stereo not given)
53 | 120 to 121 | Cc1sc(-c2ccccc2)nc1COc1ccc(C=O)cn1
54 | 284 to 286 | CN(C)C(=O)c1cn(-c2cc3c(=O)n(NS(C)(=O)=O)c(=O)[nH]c3cc2C(F)(F)F)cn1
55 | 59 to 62 | CC(C)(C)C(=O)C(CCCCOc1ccccc1)n1cncn1 (stereo not given)
56 | 86 to 90 | c1ccc(CC[C@H]2CN(Cc3ccccc3)CCN2Cc2ccccc2)cc1
57 | 113 to 115 | COc1cc(CNC(=O)c2ccccc2)cc(OC)c1OC
58 | 163 to 166 | COC(=O)COc1ccc(-c2coc3cc(OCC(=O)OC)ccc3c2=O)cc1
59 | 88 to 89 | CCOC(=O)C=C(C)C=CC=C(C)C=Cc1c(C)sc(C)c1C
60 | 198 to 200 | C[C@@H]1Cc2cc(N3C[C@H](C(N)=O)OC3=O)ccc2N1C(=O)CO
61 | 72 to 73 | CN(C)CCCOc1ccc(-c2nnc(CSCCOc3ccccc3)s2)cc1
62 | 228 to 230 | CCCC=Nc1cc(CO)cc(Nc2c3ccccc3nc3ccccc23)c1
63 | 85 to 86 | CCCCCCCCCCCCCCCCCCNC(=O)O[C@H]1CCCO[C@H]1CO (relative stereo)
64 | 163 to 164 | CCCCn1nc2c(N)nc3ccccc3c2c1CC(C)(C)C
65 | 83 to 85 | CCOC(=O)c1cc2cccnc2nc1C(=O)OCC
66 | 135 to 136 | N#CCCNC(=O)c1cccc(-c2ccc3c(c2)C(c2cc(Cl)ccc2Cl)CC3)c1 (stereo not given)
67 | 82 to 84 | COC(=O)c1cccc(C=O)c1O
68 | 77 to 80 | Nc1nc(F)c(OC(F)F)c(Cl)n1
69 | 181 to 186 | COC(=O)c1ccccc1S(=O)(=O)NC(=O)Nc1nc(C)cc(CF)n1
70 | 213 to 214 | Cc1nc2c(OCc3ccccc3)cc(CO)cc2n1C
71 | 135 to 137 | O=[N+]([O-])c1oc2ccc(CCO)cc2c1-c1ccc(CO)cc1
72 | 70 to 72 | C=CN1NCC2CC3=C(C=CC(c4ccc(F)cc4)C3)CC21C (stereo not given)
73 | 147 to 148 | CCN(CC)C(=O)c1c(-c2ccccc2)ccc2cc(-c3ccc(OC)cc3)ccc12
74 | 183 to 184 | N#Cc1cc(O)ccc1Br
75 | 225 | COc1ccccc1-c1nc(N)ncc1-c1ccc(=O)n(C)n1

Row | melting point [°C] | SMILES
76 | 102 to 108 | O=c1c(Br)c(O)ccn1Cc1ccc(O)cc1
77 | 94 to 96 | CCOC(=O)c1c2ccc(Cl)cc2c(-c2ccccc2)n1CCCO
78 | 131 to 133 | O=C1Cc2cc(F)ccc2N1
79 | 218 to 220 | CCCCc1ccc(N)c(C(=O)C(=O)OC(=O)C(=O)c2cc(CCCC)ccc2N)c1
80 | 163 to 164 | O=Cc1c2ccccc2cc2cc3ccccc3cc12
81 | 91 to 93 | C=Cc1ccc(C(=O)OC)[nH]1
82 | 78 | CN(Cc1ccc(C2=NCCN2C(=O)OC(C)(C)C)cc1)C(=O)/C=C/CNCS(=O)(=O)c1ccc([N+](=O)[O-])cc1[N+](=O)[O-]
83 | 125 to 127 | CCCc1nc2c(N)nc3cccnc3c2n1CCCCN(OC)C(=O)c1ccccc1
84 | 264 | Cn1cc(C(=O)O)c(=O)c2cc3cc(F)c(N4CCNC(c5ccccc5F)C4)cc3nc21 (racemic)
85 | 224 to 225 | COc1ccc(C(=O)Nc2cc(-c3c(-c4ccc(F)c(C)c4)nc4ccc(N(C)C)nn34)ccn2)cc1
86 | 159 to 161 | CNC(=O)N(C)c1nnc(C(C)(C)CCl)s1
87 | 168 to 170 | N#CC(C(=O)Nc1ccc(S(=O)(=O)C(F)(F)F)cc1)=C(O)C1CC1
88 | 137 to 139 | CCOC(=O)COc1ccc(C(=O)CCC(=O)O)cc1Cl
89 | 275 to 280 | CCCCOc1cc2c3c(ccc4c5ccc6c7c(cc(OCCCC)c(c1c34)c75)-c1ccccc1C6=O)C(=O)c1ccccc1-2
90 | 135 to 146 | O=C1Cc2cccc(Oc3ccccc3)c2N1
91 | 105 to 107 | COC(=O)c1ccc(OCCNC(=O)c2ccc(F)cc2)cc1
92 | 199 to 201 | CC(=O)NCC1CN(c2ccc(N3CCN(C(=O)COC(C)=O)CC3)c(F)c2)C(=O)O1 (stereo not given)
93 | 104 to 106 | Nc1ccc2c(c1)N(C1CCN(CCc3ccc(F)cc3)CC1)CC2
94 | 240 | COc1ccc(C(=O)Nc2ccc3ccc(C=CN(C)C)nc3n2)cc1
95 | 82 to 83 | Clc1nn(-c2cccnc2)cc1NCC1CC1
96 | 42 to 45 | Cc1ccc(O)c(C(C)(C)CC(C)(C)C)c1
97 | 102 to 106 | CC1(C)C=C(c2cccc(C(F)(F)F)c2)c2ccc(O)cc2O1

Row | SMILES | melting point [°C]
98 | [O-][N+]1=C(c2ccccc2F)c2cc(Cl)ccc2-n2cnc(N3CCOCC3)c2C1 | 200 to 203
99 | CCOC(=O)C1=C(CCl)N2CCOC2(C)C(C(=O)OC)C1c1ccccc1Cl (stereo not given) | 142 to 143
100 | OC1(C#Cc2cc(Cl)ccc2Cl)CN2CCC1CC2 (stereo not given) | 197 to 200
